ChEMBL document CHEMBL1144819, “Antitumor agents. 261. 20(S)-protopanaxadiol and 20(s)-protopanaxatriol as antiangiogenic agents and total assignment of (1)H NMR spectra” (J Nat Prod, 2008)
Values after ≈ are worked out from the molar mass of the structure shown.

What was measured:
HUVEC [1] = experiment: Cell viability of HUVEC cells at 20 ug/ml; type: functional, Homo sapiens
HUVEC [2] = experiment: Antiproliferative activity against HUVEC cells after 72 hrs; type: functional, cell-based; conditions: Homo sapiens

Compound | Activity (HUVEC [1]) | EC50 (HUVEC [2])
CC(C)=CCC[C@](C)(O)[C@H]1CC[C@]2(C)[C@@H]1[C@H](O)C[C@@H]1[C@@]3(C)CC[C@H](O)C(C)(C)[C@@H]3CC[C@]12C | 16.5% | 2.16 µg/mL (≈ 4.69 µM)
CC(C)=CCC[C@](C)(O)[C@H]1CC[C@]2(C)[C@@H]1[C@H](O)C[C@@H]1[C@@]3(C)CC[C@H](O)C(C)(C)[C@@H]3[C@@H](O)C[C@]12C | 16.5% | 6.64 µg/mL (≈ 13.9 µM)
